{
  "source": "ChEMBL document CHEMBL1152070",
  "about": "“-cyano-substituted analogoues of decarboxylated S-adenosylmethionine as enzyme activated, irreversible inhibitors of S-adenosylmethionine decarboxylase” (Bioorg Med Chem Lett, 1993)",
  "key": {"[1]": {"target": "T1, S-adenosylmethionine decarboxylase proenzyme (Homo sapiens) (UniProt P17707)", "T1 sequence (whole entry)": "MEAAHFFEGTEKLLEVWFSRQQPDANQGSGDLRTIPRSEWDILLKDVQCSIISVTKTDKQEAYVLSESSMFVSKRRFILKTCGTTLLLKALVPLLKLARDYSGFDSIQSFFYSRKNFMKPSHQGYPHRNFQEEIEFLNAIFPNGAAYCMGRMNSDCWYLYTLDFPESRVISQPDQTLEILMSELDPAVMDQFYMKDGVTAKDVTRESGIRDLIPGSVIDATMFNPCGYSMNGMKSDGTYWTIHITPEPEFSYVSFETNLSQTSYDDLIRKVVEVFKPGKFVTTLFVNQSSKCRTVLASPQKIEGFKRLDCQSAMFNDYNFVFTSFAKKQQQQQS", "assay": "Compound was evaluated for Enzyme kinetic inactivation constant: Kinact for S-Adenosyl-methionine decarboxylase (AdoMet-DC) enzyme"}, "[2]": {"target": "T2, S-adenosylmethionine decarboxylase proenzyme (Homo sapiens, UniProt P17707)", "T2 sequence (P17707 whole entry)": "T1 sequence (whole entry)", "assay": "Compound was evaluated to inactivate the human AdoMet-DC"}},
  "data": [
    {"smiles": "C[S+](CCC(N)C#N)C[C@H]1O[C@@H](n2cnc3c(N)ncnc32)[C@H](O)[C@@H]1O", "note": "(stereo not given in full)", "values": [
      {"measurement": "K inact", "setting": "[1]", "value": 0.29, "unit": "min⁻¹"},
      {"measurement": "K inact", "setting": "[1]; Escherichia coli", "value": 0.06, "unit": "min⁻¹"},
      {"measurement": "Ki", "setting": "[2]", "value": 247, "unit": "µM"}
    ]},
    {"smiles": "C[S+](CCCC(N)C#N)C[C@H]1O[C@@H](n2cnc3c(N)ncnc32)[C@H](O)[C@@H]1O", "note": "(stereo not given in full)", "values": [
      {"measurement": "K inact", "setting": "[1]", "value": 0.03, "unit": "min⁻¹"},
      {"measurement": "Ki", "setting": "[2]", "value": 7.2, "unit": "µM"}
    ]}
  ]
}
